Tests used:
Test in all cases: relative viability (nuclei count vs DMSO), 5 days (fraction); higher = more cells survive
[1] = compound: CC(C)C[C@H](NC(=O)[C@H](Cc1ccccc1)NC(=O)c1cnccn1)B(O)O [Bortezomib] + O=C(CCCCCCC(=O)Nc1ccccc1)NO [Vorinostat] (partner 1 µM)
Summary of the method: (§1)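 One day after seeding in 1536-well plates, lung cancer cell lines were dosed by pin tool. Dosing was either single-drug or a fixed anchor-drug dose plus five library-drug doses (not always all listed) in √10 steps. After 5 days, nuclei were stained in one fix-and-stain step and counted on 4× images, and relative viability is the nuclei count of treated wells over that of vehicle wells, given as the median of duplicate plates.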

[2] = compound: CC(C)C[C@H](NC(=O)[C@H](Cc1ccccc1)NC(=O)c1cnccn1)B(O)O [Bortezomib] + Nc1ncn([C@H]2C[C@H](O)[C@@H](CO)O2)c(=O)n1 [Decitabine] (partner 2 µM)
Summary of the method: as §1

[3] = compound: CC1=CC(=NN1)NC2=CC(=NC(=N2)/C=C/C3=CC=CC=C3)N4CCN(CC4)C + Cc1nc(NC(=O)N2CCC[C@H]2C(N)=O)sc1-c1ccnc(C(C)(C)C(F)(F)F)c1 [Alpelisib] (partner 2 µM)
Summary of the method: as §1

[4] = compound: COC1=CC(c2cc3ccccc3[nH]2)=N/C1=C\c1[nH]c(C)cc1C [Obatoclax] + CC(C)C[C@H](NC(=O)[C@H](Cc1ccccc1)NC(=O)c1cnccn1)B(O)O [Bortezomib] (partner 0.002 µM)
Summary of the method: as §1

| Cell Line | relative viability ([1]; first compound 0.0002 µM) | relative viability ([1]; first compound 0.000632 µM) | relative viability ([1]; first compound 0.002 µM) | relative viability ([1]; first compound 0.006325 µM) | relative viability ([1]; first compound 0.02 µM) | relative viability ([2]; first compound 0.0002 µM) | relative viability ([2]; first compound 0.000632 µM) | relative viability ([2]; first compound 0.002 µM) | relative viability ([2]; first compound 0.006325 µM) | relative viability ([2]; first compound 0.02 µM) | relative viability ([3]; first compound 0.08 µM) | relative viability ([3]; first compound 0.253 µM) | relative viability ([3]; first compound 0.8 µM) | relative viability ([3]; first compound 2.53 µM) | relative viability ([3]; first compound 8 µM) | relative viability ([4]; first compound 0.01 µM) | relative viability ([4]; first compound 0.03162 µM) | relative viability ([4]; first compound 0.1 µM) | relative viability ([4]; first compound 0.3162 µM) | relative viability ([4]; first compound 1 µM) |
| --- | --- | --- | --- | --- | --- | --- | --- | --- | --- | --- | --- | --- | --- | --- | --- | --- | --- | --- | --- | --- |
| NCI-H441 | 0.865 | 0.803 | 0.243 | 0.138 | 0.141 | 0.235 | 0.274 | 0.207 | 0.119 | 0.109 | 0.632 | 0.578 | 0.484 | 0.157 | 0.121 | 0.378 | 0.498 | 0.413 | 0.291 | 0.22 |
| NCI-H460 | 0.668 | 0.678 | 0.857 | 0.0257 | 0.0172 | 0.479 | 0.471 | 0.56 | 0.296 | 0.0215 | 0.388 | 0.581 | 0.183 | 0.0086 | 0.0052 | 1.01 | 1.19 | 0.945 | 0.0492 | 0.0392 |
| NCI-H520 | 0.825 | 0.713 | 0.177 | 0.15 | 0.138 | 0.43 | 0.549 | 0.424 | 0.174 | 0.155 | 0.891 | 0.937 | 0.892 | 0.498 | 0.166 | 0.664 | 0.525 | 0.562 | 0.299 | 0.264 |
| NCI-H596 | 0.506 | 0.614 | 0.365 | 0.219 | 0.173 | 1.01 | 0.999 | 0.95 | 0.251 | 0.208 | 0.5 | 0.577 | 0.565 | 0.367 | 0.121 | 1.12 | 0.974 | 0.812 | 0.696 | 0.674 |
| NCI-H647 | 0.492 | 0.583 | 0.0536 | 0.0218 | 0.0184 | 0.483 | 0.404 | 0.38 | 0.0562 | 0.0417 | 0.927 | 1.11 | 0.782 | 0.05 | 0.0332 | 0.902 | 0.853 | 0.541 | 0.351 | 0.143 |
| NCI-H661 | 0.747 | 0.74 | 0.758 | 0.269 | 0.295 | 0.553 | 0.553 | 0.529 | 0.395 | 0.204 | 0.578 | 0.749 | 0.94 | 0.455 | 0.197 | 0.805 | 0.704 | 0.865 | 0.843 | 0.786 |
| NCI-H727 | 1.29 | 1.06 | 1.36 | 1.1 | 1.02 | 0.993 | 1.09 | 0.875 | 0.95 | 0.834 | 0.586 | 0.54 | 0.529 | 0.377 | 0.167 | 0.892 | 0.827 | 1.17 | 0.847 | 0.335 |
| NCI-H838 | 0.683 | 0.752 | 0.676 | 0.157 | 0.144 | 0.473 | 0.467 | 0.459 | 0.184 | 0.138 | 1.02 | 1.13 | 0.884 | 0.749 | 0.139 | 1.01 | 0.748 | 0.495 | 0.754 | 0.404 |

From the supplement of paper PMC10307832
